Assays:
foxtail, green = test: Test D postemergence; format: in vivo, Setaria viridis; conditions: scale 0 to 100; for Plant response rating, Foxtail, Green: 16 g ai/ha
Source text: (§1) Seeds of plant species selected from bluegrass (annual bluegrass, Poa annua), blackgrass (Alopecurus myosuroides), canarygrass (littleseed canarygrass, Phalaris minor), chickweed (common chickweed, Stellaria media), galium (catchweed bedstraw, Galium aparine), bromegrass, downy (downy bromegrass, Bromus tectorum), field poppy (Papaver rhoeas), field violet (Viola arvensis), foxtail, green (green foxtail, Setaria viridis), deadnettle (henbit deadnettle, Lamium amplexicaule), ryegrass, Italian (Italian ryegrass, Lolium multiflorum), kochia (Kochia scoparia), lambsquarters (Chenopodium album), oilseed rape (Brassica napus), pigweed (redroot pigweed, Amaranthus retroflexus), chamomile (scentless chamomile, Matricaria inodora), speedwell (bird's-eye speedwell, Veronica persica), barley, spring (spring barley, Hordeum vulgare), wheat, spring (spring wheat, Triticum aestivum), buckwheat, wild (wild buckwheat, Polygonum convolvulus), mustard, wild (wild mustard, Sinapis arvensis), oat, wild (wild oat, Avena fatua), radish, wild (wild radish, Raphanus raphanistrum), windgrass (Apera spica-venti), Russian thistle (Salsola kali), barley, winter (winter barley, Hordeum vulgare), and wheat, winter (winter wheat, Triticum aestivum) were planted into a silt loam soil and treated preemergence with test chemicals formulated in a non-phytotoxic solvent mixture which included a surfactant.
(§2) At the same time, these species were planted in pots containing Redi-Earth® planting medium (Scotts Company, 14111 Scottslawn Road, Marysville, Ohio 43041) comprising spaghnum peat moss, vermiculite, wetting agent and starter nutrients and treated with postemergence applications of the test chemicals formulated in the same manner. Plants ranged in height from 2 to 18 cm (1- to 4-leaf stage). Treated plants and controls were maintained in a controlled growth environment for 14 to 21 days after which time all species were compared to controls and visually evaluated. Plant response ratings, summarized in Table D, are based on a scale of 0 to 100 where 0 is no effect and 100 is complete control. A dash (-) response means no test result.

deadnettle = test: Test D preemergence; format: in vivo, Lamium amplexicaule; conditions: for Plant response rating (scale 0 to 100), Deadnettle: 16 g ai/ha, taken as preemergence; for Plant response rating, Deadnettle: Preemergence, scale 0 to 100
Source text: as §1, §2

wheat, spring = test: Test D postemergence; format: in vivo, Triticum aestivum; conditions: scale 0 to 100; for Plant response rating, Wheat, Spring: 16 g ai/ha
Source text: as §1, §2

wheat, winter = test: Test D postemergence; format: in vivo, Triticum aestivum; conditions: scale 0 to 100; for Plant response rating, Wheat, Winter: 16 g ai/ha
Source text: as §1, §2

oat, wild = test: Test D preemergence; format: in vivo, Avena fatua; conditions: for Plant response rating (scale 0 to 100), Oat, Wild: 16 g ai/ha, taken as preemergence; for Plant response rating, Oat, Wild: Preemergence, scale 0 to 100
Source text: as §1, §2

lambsquarters = test: Test D postemergence; format: in vivo, Chenopodium album; conditions: scale 0 to 100; for Plant response rating, Lambsquarters: 16 g ai/ha
Source text: as §1, §2

radish, wild = test: Test D postemergence; format: in vivo, Raphanus raphanistrum; conditions: scale 0 to 100; for Plant response rating, Radish, Wild: 16 g ai/ha
Source text: as §1, §2

speedwell = test: Test D postemergence; format: in vivo, Veronica persica; conditions: scale 0 to 100; for Plant response rating, Speedwell: 16 g ai/ha
Source text: as §1, §2

SMILES | Foxtail, Green plant response rating (foxtail, green; Postemergence, 31 g ai/ha) | Foxtail, Green plant response rating (foxtail, green; Postemergence, 125 g ai/ha) | Foxtail, Green plant response rating (foxtail, green; postemergence, 62 g ai/ha) | Plant response rating, Deadnettle (deadnettle; 31 g ai/ha) | Plant response rating, Deadnettle (deadnettle; 62 g ai/ha) | Plant response rating, Deadnettle (deadnettle; 125 g ai/ha) | Wheat, Spring plant response rating (wheat, spring; Postemergence, 31 g ai/ha) | Wheat, Spring plant response rating (wheat, spring; Postemergence, 125 g ai/ha) | Wheat, Spring plant response rating (wheat, spring; postemergence, 62 g ai/ha) | Wheat, Winter plant response rating (wheat, winter; Postemergence, 31 g ai/ha) | Wheat, Winter plant response rating (wheat, winter; Postemergence, 125 g ai/ha) | Wheat, Winter plant response rating (wheat, winter; postemergence, 62 g ai/ha) | Plant response rating, Oat, Wild (oat, wild; 62 g ai/ha) | Plant response rating, Oat, Wild (oat, wild; 125 g ai/ha) | Lambsquarters plant response rating (lambsquarters; Postemergence, 31 g ai/ha) | Lambsquarters plant response rating (lambsquarters; Postemergence, 125 g ai/ha) | Lambsquarters plant response rating (lambsquarters; postemergence, 62 g ai/ha) | Speedwell plant response rating (speedwell; Postemergence, 31 g ai/ha) | Speedwell plant response rating (speedwell; Postemergence, 125 g ai/ha) | Speedwell plant response rating (speedwell; postemergence, 62 g ai/ha) | also measured
CCc1cc(C(=O)NOC(C)C)nn1Cc1cccc(OC(F)(F)F)c1 [Compound 70] | 15 | 30 | 0 | 25 | 30 | 50 | 5 | 5 | 5 | 0 | 5 | 5 | 0 | 5 | 85 | 98 | 98 | 100 | 100 | 100 | Plant response rating, Foxtail, Green (foxtail, green; Postemergence): 0; Foxtail, Green plant response rating (foxtail, green; Postemergence, 250 g ai/ha): 60; Plant response rating (scale 0 to 100), Deadnettle (deadnettle): 0; Plant response rating, Deadnettle (deadnettle; 250 g ai/ha): 100; Plant response rating, Wheat, Spring (wheat, spring; Postemergence): 0; Wheat, Spring plant response rating (wheat, spring; Postemergence, 250 g ai/ha): 10; Plant response rating, Wheat, Winter (wheat, winter; Postemergence): 0; Wheat, Winter plant response rating (wheat, winter; Postemergence, 250 g ai/ha): 10; Plant response rating (scale 0 to 100), Oat, Wild (oat, wild): 0; Plant response rating, Oat, Wild (oat, wild; 31 g ai/ha): 0; Plant response rating, Oat, Wild (oat, wild; 250 g ai/ha): 30; Plant response rating, Lambsquarters (lambsquarters; Postemergence): 80; Lambsquarters plant response rating (lambsquarters; Postemergence, 250 g ai/ha): 98; Plant response rating, Radish, Wild (radish, wild; Postemergence): 10; Radish, Wild plant response rating (radish, wild; Postemergence, 31 g ai/ha): 10; Radish, Wild plant response rating (radish, wild; Postemergence, 125 g ai/ha): 50; Radish, Wild plant response rating (radish, wild; Postemergence, 250 g ai/ha): 85; Radish, Wild plant response rating (radish, wild; postemergence, 62 g ai/ha): 10; Plant response rating, Speedwell (speedwell; Postemergence): 100; Speedwell plant response rating (speedwell; Postemergence, 250 g ai/ha): 100
Cc1cc(C(=O)NCC(F)(F)F)nn1Cc1ccnc(C(F)(F)F)c1 [Compound 74] | 10 | 40 | 15 | 5 | 10 | 20 | 0 | 5 | 0 | 0 | 0 | 0 | 10 | 30 | 70 | 85 | 75 | 60 | 75 | 70 | Plant response rating, Foxtail, Green (foxtail, green; Postemergence): 0; Plant response rating (scale 0 to 100), Deadnettle (deadnettle): 0; Plant response rating, Wheat, Spring (wheat, spring; Postemergence): 0; Plant response rating, Wheat, Winter (wheat, winter; Postemergence): 0; Plant response rating (scale 0 to 100), Oat, Wild (oat, wild): 20; Plant response rating, Oat, Wild (oat, wild; 31 g ai/ha): 10; Plant response rating, Lambsquarters (lambsquarters; Postemergence): 70; Plant response rating, Speedwell (speedwell; Postemergence): 75
CCc1cc(C(=O)NC2CC2)nn1Cc1ccnc(C(F)(F)F)c1 [Compound 76] | 35 | 55 | 15 | 50 | 100 | 100 | 5 | 5 | 5 | 0 | 15 | 10 | 35 | 90 | 70 | 95 | 75 | 60 | 75 | 75 | Plant response rating, Foxtail, Green (foxtail, green; Postemergence): 5; Foxtail, Green plant response rating (foxtail, green; Postemergence, 250 g ai/ha): 85; Plant response rating (scale 0 to 100), Deadnettle (deadnettle): 0; Plant response rating, Deadnettle (deadnettle; 250 g ai/ha): 100; Plant response rating, Wheat, Spring (wheat, spring; Postemergence): 0; Wheat, Spring plant response rating (wheat, spring; Postemergence, 250 g ai/ha): 10; Plant response rating, Wheat, Winter (wheat, winter; Postemergence): 0; Wheat, Winter plant response rating (wheat, winter; Postemergence, 250 g ai/ha): 20; Plant response rating (scale 0 to 100), Oat, Wild (oat, wild): 0; Plant response rating, Oat, Wild (oat, wild; 31 g ai/ha): 10; Plant response rating, Oat, Wild (oat, wild; 250 g ai/ha): 100; Plant response rating, Lambsquarters (lambsquarters; Postemergence): 65; Lambsquarters plant response rating (lambsquarters; Postemergence, 250 g ai/ha): 100; Plant response rating, Radish, Wild (radish, wild; Postemergence): 5; Radish, Wild plant response rating (radish, wild; Postemergence, 31 g ai/ha): 10; Radish, Wild plant response rating (radish, wild; Postemergence, 125 g ai/ha): 70; Radish, Wild plant response rating (radish, wild; Postemergence, 250 g ai/ha): 65; Radish, Wild plant response rating (radish, wild; postemergence, 62 g ai/ha): 20; Plant response rating, Speedwell (speedwell; Postemergence): 65; Speedwell plant response rating (speedwell; Postemergence, 250 g ai/ha): 100
O=C(NC1CC1)c1cc(CCF)n(Cc2ccnc(C(F)(F)F)c2)n1 [Compound 176] | 20 | 35 | 20 | 20 | 80 | 100 | 0 | 0 | 0 | 5 | 15 | 5 | 10 | 40 | 60 | 75 | 60 | 70 | 70 | 70 | Plant response rating, Foxtail, Green (foxtail, green; Postemergence): 10; Plant response rating (scale 0 to 100), Deadnettle (deadnettle): 0; Plant response rating, Wheat, Spring (wheat, spring; Postemergence): 0; Plant response rating, Wheat, Winter (wheat, winter; Postemergence): 5; Plant response rating (scale 0 to 100), Oat, Wild (oat, wild): 0; Plant response rating, Lambsquarters (lambsquarters; Postemergence): 55; Radish, Wild plant response rating (radish, wild; Postemergence, 31 g ai/ha): 65; Radish, Wild plant response rating (radish, wild; Postemergence, 125 g ai/ha): 65; Radish, Wild plant response rating (radish, wild; postemergence, 62 g ai/ha): 65; Plant response rating, Speedwell (speedwell; Postemergence): 50
CCCc1cc(C(=O)NC2CC2)nn1Cc1cc(C(F)(F)F)nn1C [Compound 202] | 20 | 20 | 20 | 100 | 100 | 100 | 10 | 10 | 10 | 15 | 20 | 15 | 15 | 65 | 50 | 60 | 50 | 70 | 75 | 70 | Foxtail, Green plant response rating (foxtail, green; Postemergence, 250 g ai/ha): 30; Plant response rating, Deadnettle (deadnettle; 250 g ai/ha): 100; Wheat, Spring plant response rating (wheat, spring; Postemergence, 250 g ai/ha): 20; Wheat, Winter plant response rating (wheat, winter; Postemergence, 250 g ai/ha): 25; Plant response rating, Oat, Wild (oat, wild; 250 g ai/ha): 100; Lambsquarters plant response rating (lambsquarters; Postemergence, 250 g ai/ha): 80; Radish, Wild plant response rating (radish, wild; Postemergence, 31 g ai/ha): 55; Radish, Wild plant response rating (radish, wild; Postemergence, 125 g ai/ha): 65; Radish, Wild plant response rating (radish, wild; Postemergence, 250 g ai/ha): 75; Radish, Wild plant response rating (radish, wild; postemergence, 62 g ai/ha): 55; Speedwell plant response rating (speedwell; Postemergence, 250 g ai/ha): 100

Reference: patent US20150105252A1, “SUBSTITUTED PYRAZOLES AS HERBICIDES” (E I DU PONT DE NEMOURS AND COMPANY, priority 2013, published 2015)
